# Experimental data published in patent publication US20240352414A1, “THREE-DIMENSIONAL DIRECT NEURONAL REPROGRAMMING TO MODEL ALZHEIMER'S DISEASE IN HUMAN NEURONS” (Washington University, priority 2023, published 2024).
# How the values were obtained:
# Type in all cases: cell-based, human
# [1] = test system: ADAD spheroids; experiment: Aβ deposition by whole mount immunostaining (6E10) in ADAD spheroids; conditions: ADAD spheroids treated from PID16 to 28; 5 μM β-secretase inhibitor IV or 40 μM DAPT; immunostained at PID28
# Method: (§1) β-secretase inhibitor IV (cat #565788), DAPT (cat #D5942), and lamivudine (3TC) (cat #PHR1365) were purchased from Millipore Sigma. To make the stock solution, 5 mM β-secretase inhibitor IV and 40 mM DAPT were dissolved in DMSO and 100 mM 3TC was dissolved in sterile water. For thin gel culture, 2.5 μM β-secretase inhibitor IV, 20 μM DAPT, or 100 μM 3TC was added to the fresh media and used for half media changes starting at PID16 or PID22. For spheroids culture, 5 μM β-secretase inhibitor IV, 40 μM DAPT, or 100 μM 3TC was added to the fresh media and used for half media changes starting at PID16 or PID22.
# (§2) Whole mount immunofluorescence staining of spheroid: For whole-mount immunostaining of neuronal spheroid, 3D cell culture clearing kit (abcam: ab243299) was used with modifications. Briefly, fixed spheroids on transwell inserts were permeabilized by sequential dehydration and rehydration using different concentrations of ethanol. […]
# (§3) For quantification of the total volume of Aβ deposits, volume and area of the spheroid, co-localization analysis in tau related pathologies, and number of TUNEL positive cells or total cells, the “surface” module in Imaris was used for 3D reconstruction and quantification. […]
# [2] = test system: ADAD 3D-CNs; experiment: p-tau (AT8) and K63-ubiquitin/p-tau (PHF1) immunostaining in ADAD 3D-CNs; conditions: ADAD 3D-CNs treated with β-secretase inhibitor IV or DAPT
# Method: as §1
# Immunofluorescence staining of thin gel: The fixed thin gel cultures were permeabilized in PBST (0.2% (vol/vol) TritonX-100 in PBS) at room temperature for 1h and blocked with blocking buffer (5% (wt/vol) BSA, 2% (wt/vol) normal goat serum, and 0.2% (vol/vol) TritonX-100) overnight at 4° C. The blocking buffer was removed from thin gel culture plates and primary antibodies diluted in blocking buffer were added to the plate followed by incubation overnight at 4° C. with gentle rocking. After washing 5 times with PBST, the cells were then incubated with secondary antibodies diluted in blocking buffer at room temperature for 3-5 hours or 4° C. overnight. Cells were washed 5 times with PBST, incubated with DAPI (Sigma) for 20 min at room temperature if needed and sealed with a drop of anti-fade prolong gold reagent (Life technology). Plates were sealed with parafilm and stored at 4° C. before imaging. The immunofluorescence images were taken by Leica SP5X white light laser confocal system.
# (§4) For quantification of the total volume of Aβ deposits, volume and area of the spheroid, co-localization analysis in tau related pathologies, and number of TUNEL positive cells or total cells, the “surface” module in Imaris was used for 3D reconstruction and quantification. For measuring the intensity of neurite outgrowth in spheroid, Image J was used by measuring the mean intensity at each region (distal, middle, and proximal).
# [3] = test system: ADAD spheroids; experiment: Cell death (TUNEL staining) in ADAD spheroids; conditions: ADAD spheroids at PID28, treatment starting at PID16
# Method: as §1, §4
# TUNEL assay: DeadEND Fluorometric TUNEL system kit was purchased from Promega (G3250) and TUNEL assay was performed according to the manufacturer's description. Briefly, the cryosections of neuronal spheroids were permeabilized by 0.2% TritonX-100 in PBS for 5 mins followed by two 5 mins washes in PBS. […]
# [4] = test system: LOAD spheroids; experiment: Aβ deposition by whole mount immunostaining (6E10) in LOAD spheroids; conditions: treatment started at PID22 (after onset of Aβ deposition), examined at PID28
# Method: as §1, §2, §3
Compound,Aβ deposition [1],K63-ubiquitin+p-tau (PHF1) level [2],p-tau (AT8) level [2],cell death / neuronal death [3],reduction of Aβ deposition [4],effect on Aβ deposition [4]
C[C@H](NC(=O)Cc1cc(F)cc(F)c1)C(=O)N[C@H](C(=O)OC(C)(C)C)c1ccccc1 [DAPT],reduction,significant reduction,significant reduction,reduced,~30%,–
β-secretase inhibitor IV,reduction,significant reduction,significant reduction,reduced,–,non-significant effect
